The test system of one data set is SQ20B xenograft tumors. As to the kind of experiment: In vivo to in vitro clonogenic assay in nude mice with SQ20B tumors. Set-up: species or system mouse. To be noted: osmotic pump placed 2 days prior, 8 Gy, FIG. 11. As to the method: The mice in the study had SQ20B xenograft tumors on a hind leg. The pump was placed into the mouse 2 days prior to experiment. On the day of the experiment, the mouse was anesthetized and irradiated to 8 Gy. The tumor was then harvested and a cell suspension made. The cells were plated and the plating efficiency determined to indicate the number of cells that were viable and able to reproduce by forming colonies in each individual group (plating efficiency).
FIG. 8 illustrates the results of an in vivo to in vitro clonogenic assay in nude mice with SQ20B tumors.

The conditions of data set [1]: Amprenavir by pump + 8 Gy vs 8 Gy alone, right hind leg.
A further data set has as its system REF. As to the kind of experiment: Clonogenic assay, radiation sensitization of REF cells. Format: cell-based. To be noted: control SF2 0.408 +/− 0.040. How it is done:
(§1) Cultures of cells in log growth phase were counted and plated in 60-mm dishes containing 4 ml of media. […] Cells were irradiated with a Mark I cesium irradiator (J. L. Shepherd, San Fernando, Calif.) at a dose rate of 1.6 Gy/min. Colonies were stained and counted 10-14 days after irradiation. A light box was used to assist in counting colonies. The surviving fraction was calculated by dividing the number of colonies formed by the number of cells plated times plating efficiency (Table 1). Each point value represents the mean surviving fraction from at least six replicate dishes.

The test system of another data set is T24. In words: Clonogenic assay, radiation sensitization of T24 cells. It is filed as cell-based, human. Particulars: control SF2 0.560 +/− 0.061. How it is done:
as §1

For data set [2] the following is noted: dose of about 1200 mg bid; cited from earlier work.
A further data set deals with MIAPACA2. In words: Clonogenic assay, radiation sensitization of MIAPACA2 cells. It is filed as cell-based. To be noted: control SF2 0.906 +/− 0.086. As to the method: as §1
Another data set concerns A549. In words: Clonogenic assay, radiation sensitization of A549 cells. It is filed as cell-based. Particulars: control SF2 0.570 +/− 0.042. As to the method:
as §1

The subject of another data set is SQ20B cells. As to the kind of experiment: Clonogenic assay, radiosensitization of SQ20B cells. It is filed as cell-based, human. How it is done:
Cultures in log growth phase were counted and plated in 60-mm dishes containing 4 ml of media. The cells were allowed to attach and inhibitors were added to cultures at least one hour prior to radiation. Cells were irradiated with a Mark I cesium irradiator (J. L. Shepherd, San Fernando, Calif.) at a dose rate of 1.6 Gy/min. Colonies were stained and counted 10-14 days after irradiation. Typically, at least 6 dishes are prepared at each dose level of radiation.
as §1

The next data set concerns Akt. As to the kind of experiment: Western blot analysis of Akt phosphorylation in SQ20B cells. Format: cell-based, human. How it is done:
Using Western blot analysis, a human head-and-neck cancer cell line, SQ20B, (American Type Culture Collection; Manassas, Va.) containing a constitutively-active EGFR receptor and thus, increased signaling through PI3K, was examined for Akt phosphorylation.
Cells were lysed without trypsinization by rinsing culture dishes once with PBS followed by lysis with reducing Laemeli sample buffer. Samples were boiled, sheared, and clarified by centrifugation and stored at −20° C. […] Membranes were blocked in PBS containing 0.1% Tween-20 and 5% powdered milk before primary antibody addition. The dilution of the primary antibody was 1:2000. Antibody binding was detected using the ECL chemiluminescence kit (Amersham, Arlington Heights, Ill.). Images were digitized using an Arcus II scanner, and figures were assembled using Adobe Photoshop 3.0 and Microsoft Power Point programs.
Background: Immunoblotting shows a protein as a band on a membrane.

For `CC(C)CN(C[C@@H](O)[C@H](Cc1ccccc1)NC(=O)O[C@H]1CCOC1)S(=O)(=O)c1ccc(N)cc1` [Amprenavir, amprenavir], the “cell kill, combination of radiation and Amprenavir” value is given as “significant increase in cell kill” with SQ20B xenograft tumors and “increase cell kill” in the data set on SQ20B cells (clonogenic assay in vitro, FIG. 7). In addition, in data set [1], the “leg contracture or fibrosis” value is listed as “No differences”. The “Amprenavir SF2” value in the data set with REF is on record as 0.402 +/− 0.136; with T24 it was 0.370 +/− 0.022; in the data set on MIAPACA2, 0.664 +/− 0.051; with A549 it was 0.487 +/− 0.030; in the data set with SQ20B cells (SQ20B, control SF2 0.691 +/− 0.042), 0.432 +/− 0.017. For the same compound, in [2], the peak plasma concentration is 15.1 µM. Moreover, the trough plasma concentration in data set [2] was 0.63 µM. Further, in the data set with SQ20B cells (30 fractions of 2 Gy, SF2 0.51 vs 0.7), the “survival difference in cell kill numbers” value is given as around 4 log. For the same compound, the “surviving fraction after 2 Gy (SF2)” value in the data set with SQ20B cells (SQ20B cells, 5 μM Amprenavir + 2 Gy radiation, control 70% (FIG. 6)) was 51%. In the data set with SQ20B cells (calculated from SF2 0.51, without drug 2.25×10^−5), the “survival value after 30 fractions of 2 Gy” value is given as 1.68×10^−9. In addition, the “signaling in the Ras pathway” value with Akt (FIG. 4, SQ20b cells and T24 cells) is recorded as “inhibits”. The “phosphorylation of Akt at Ser 473” value with Akt (SQ20B cells, 10 μM Amprenavir, Western blot) is on record as “down-regulation”; in the data set with Akt (SQ20B cells, 20 μM Amprenavir, Western blot (FIG. 3 and FIG. 5)) it was “abolished”. Also, the “phosphorylation of Akt at the Thr 308 site” value in the data set on Akt (SQ20B cells, 10 μM or 20 μM Amprenavir) is given as “no change”.
